The text below walks through data of PMC4594927 (PLoS ONE, 2015).

The target of assay [1] is T1, MtbIMPDH2ΔCBS (Mycobacterium tuberculosis, UniProt P9WKI7, DEL126-250/R252G). Type of assay: biochemical.
The target of assay [2] is T1, MtbIMPDH2ΔCBS. In kind it is biochemical. This is another data set of the same source.

As to `COc1c(C)c2c(c(O)c1C/C=C(\C)Cn1cc(COC[C@H]3O[C@@H](n4cnc5c(N)ncnc54)[C@H](O)[C@@H]3O)nn1)C(=O)OC2` [MAD1, reference compound], in assay [1], the “mechanism of inhibition vs. IMP” value is listed as 1000 ± 50 (UC), the “mechanism of inhibition vs. NAD^+” value is 1400 ± 100 (UC), the “mechanism of inhibition with respect to IMP” value is on record as “uncompetitive” and the “mechanism of inhibition with respect to NAD+” value is “uncompetitive”.

Turning to `NC(=O)c1ccc[n+]([C@@H]2O[C@H](COP(=O)([O-])OP(=O)(O)OC[C@H]3O[C@@H](n4cnc5c(N)ncnc54)[C@H](O)[C@@H]3O)[C@@H](O)[C@H]2O)c1` [NAD+], the “Kii (NAD+)” value in assay [2] amounted to 16 ± 1 mM.

Turning to `C=C(C)c1cccc(C(C)(C)NC(=O)Nc2ccc(Cl)c(C(=O)N(C)C)c2)c1` [P41], in assay [1], the “mechanism of inhibition vs. IMP” value was 9 ± 4 (UC), the “mechanism of inhibition vs. NAD^+” value was 13 ± 4 (NC), the “mechanism of inhibition with respect to IMP” value is reported as “uncompetitive” and the “mechanism of inhibition with respect to NAD+” value was “noncompetitive”.

For the molecule `C[C@H](Nc1cccc(Cl)c1Cl)C(=O)Nc1ccc2oc(-c3ccncc3)nc2c1` [Q67], in assay [1], the “mechanism of inhibition vs. IMP” value is reported as 17 ± 9 (UC), the “mechanism of inhibition vs. NAD^+” value was 7 ± 7 (C), the “mechanism of inhibition with respect to IMP” value is given as “uncompetitive” and the “mechanism of inhibition with respect to NAD+” value was “competitive”.
